Reference: patent US20220204539A1, “CD73 INHIBITORS” (BioArdis LLC, priority 2019, published 2022)

Key:
[1] = molecular target: T1, Cell surface CD73 of U87 MG human glioblastoma cells (Homo sapiens, UniProt P21589); assay: CD73 Cellular Assay; type: cell-based; details: 5000 cells per well, 30 μM AMP substrate, read-out: Potency (IC50, CD73 cellular assay)
T1 construct: Cell surface CD73 catalyzes the conversion of adenosine monophosphate (AMP) to adenosine and inorganic phosphate; endogenous in cells; host or cells: U87 MG human glioblastoma cells
T1 sequence (P21589 27-549): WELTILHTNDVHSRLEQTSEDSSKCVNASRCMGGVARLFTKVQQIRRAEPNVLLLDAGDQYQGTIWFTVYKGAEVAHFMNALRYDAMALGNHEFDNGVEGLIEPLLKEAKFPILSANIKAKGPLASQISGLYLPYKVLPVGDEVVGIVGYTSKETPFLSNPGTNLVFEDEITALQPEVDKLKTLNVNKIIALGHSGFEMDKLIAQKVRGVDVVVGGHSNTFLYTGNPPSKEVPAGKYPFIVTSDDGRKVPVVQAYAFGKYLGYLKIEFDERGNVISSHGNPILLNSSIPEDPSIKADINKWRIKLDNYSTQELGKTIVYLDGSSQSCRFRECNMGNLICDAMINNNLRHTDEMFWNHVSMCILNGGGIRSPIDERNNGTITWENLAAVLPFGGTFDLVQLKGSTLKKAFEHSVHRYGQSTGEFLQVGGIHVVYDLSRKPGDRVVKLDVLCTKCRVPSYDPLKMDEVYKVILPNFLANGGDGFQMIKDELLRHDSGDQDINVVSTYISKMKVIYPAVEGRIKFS
Summary of the method: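 U87 MG cells (5000/well) preincubated with compound 30 min at 37 °C, 5% CO2, in HEPES-buffered saline pH 7.4 with 0.5% DMSO, then 30 μM AMP (final) for 50 min. Released phosphate in supernatant read colorimetrically at 635 nm; IC50 from four-parameter logistic fit versus cells-plus-substrate and cells-only controls.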

[2] = molecular target: T2, Recombinant Human 5′-Nucleotidase (CD73) (Homo sapiens, UniProt P21589); assay: CD73 Enzyme Assay; type: biochemical; details: human CD73 0.5 nM, AMP 30 μM, PiColorLock phosphate detection; read-out: Potency (IC50, CD73 enzyme assay)
T2 construct: CHO derived CD73 (Trp27-Lys547), with a C-terminal 6-His tag; 6-His (C); purchased R&D 5795-EN; host or cells: CHO
T2 sequence (P21589 27-547): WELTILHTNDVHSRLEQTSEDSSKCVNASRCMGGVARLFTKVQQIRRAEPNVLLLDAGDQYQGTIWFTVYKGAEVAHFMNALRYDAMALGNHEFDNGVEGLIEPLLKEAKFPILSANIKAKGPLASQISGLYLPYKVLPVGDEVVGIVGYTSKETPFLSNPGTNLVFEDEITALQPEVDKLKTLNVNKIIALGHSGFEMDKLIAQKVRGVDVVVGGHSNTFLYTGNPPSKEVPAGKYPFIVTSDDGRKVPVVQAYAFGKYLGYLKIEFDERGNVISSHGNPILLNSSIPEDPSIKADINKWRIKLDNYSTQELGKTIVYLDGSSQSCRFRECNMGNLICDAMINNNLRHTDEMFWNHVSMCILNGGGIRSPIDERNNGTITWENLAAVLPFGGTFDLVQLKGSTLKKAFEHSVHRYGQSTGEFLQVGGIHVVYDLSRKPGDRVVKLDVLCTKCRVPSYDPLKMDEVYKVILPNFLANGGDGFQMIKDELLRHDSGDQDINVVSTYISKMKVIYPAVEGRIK
Summary of the method: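 Human CD73 (CHO-derived Trp27-Lys547, His-tagged; 0.5 nM final) was preincubated with compound for 15 min at 25° C. in Tris pH 7.5 buffer with MgCl2. It then reacted with 30 μM AMP for 20 min at 37° C., and released phosphate was read by malachite green absorbance at 635 nm. IC50 came from four-parameter fits against enzyme and no-enzyme controls.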

SMILES	IC50 [1] [nM]	IC50 [2] [nM]
O=P(O)(O)CP(=O)(O)OC[C@H]1O[C@@H](c2cnc3c(N4CC5CCCC5C4)nc(Cl)nn23)[C@@H](F)[C@@H]1O (stereo partly drawn) [Compound 72, (((((2R,3R,4S,5S)-5-(2-chloro-4-(hexahydrocyclopenta[c]pyrrol-2(1H)-yl)imidazo[2,1-f][1,2,4]triazin-7-yl)-4-fluoro-3-hydroxytetrahydrofuran-2-yl)methoxy)(hydroxy)phosphoryl)methyl) phosphonic Acid]	1 to 9.9	< 10
O=P(O)(O)CP(=O)(O)OC[C@H]1O[C@@H](c2cnc3c(NCc4ccccc4)ncnn23)[C@H](O)[C@@H]1O [Compound 2, (((((2R,3S,4R,1S)-5-(4-(benzylamino)imidazo[2,1-f][1,2,4]triazin-7-yl)-3,4-dihydroxytetrahydrofuran-2-yl)methoxy)(hydroxy)phosphoryl)methyl)phosphonic Acid]	1 to 9.9	10 to 99
O=P(O)(O)CP(=O)(O)OC[C@H]1O[C@@H](c2cnc3c(NC4CC5CCC4C5)nc(Cl)nn23)[C@H](O)[C@@H]1O (stereo partly drawn) [Compound 50, [({[(2R,3S,4R,5S)-5-(4-{bicyclo[2.2.1]heptan-2-ylamino}-2-chloroimidazo[2,1-f][1,2,4]triazin-7-yl)-3,4-dihydroxyoxolan-2-yl]methoxy}(hydroxy)phosphoryl)methyl]phosphonic acid]	< 1	< 10
C[C@H](Nc1nc(Cl)nn2c([C@@H]3O[C@H](COP(=O)(O)CP(=O)(O)O)[C@@H](O)[C@H]3O)cnc12)c1ccc(F)c(F)c1 [Compound 52, (((((2R,3S,4R,5S)-5-(2-chloro-4-(((S)-1-(3,4-difluorophenyl)ethyl)amino)imidazo[2,1-f][1,2,4]triazin-7-yl)-3,4-dihydroxytetrahydrofuran-2-yl)methoxy)(hydroxy)phosphoryl)methyl) phosphonic acid]	< 1	< 10
N#Cc1nc(NC2CCCC2)c2ncc([C@@H]3O[C@H](COP(=O)(O)CP(=O)(O)O)[C@@H](O)[C@H]3O)n2n1 [Compound 62, (((((2R,3S,4R,5S)-5-(2-cyano-4-(cyclopentylamino)imidazo[2,1-f][1,2,4]triazin-7-yl)-3,4-dihydroxytetrahydrofuran-2-yl)methoxy)(hydroxy)phosphoryl)methyl)phosphonic Acid]	< 1	< 10
O=P(O)(O)CP(=O)(O)OC[C@H]1O[C@@H](c2cnc3c(N4CC5CCCC5C4)nc(Cl)nn23)[C@H](O)[C@@H]1O (stereo partly drawn) [Compound 10, (((((2R,3S,4R,1S)-5-(2-chloro-4-(hexahydrocyclopenta[c]pyrrol-2(1H)-yl)imidazo[2,1-f][1,2,4]triazin-7-yl)-3,4-dihydroxytetrahydrofuran-2-yl)methoxy)(hydroxy)phosphoryl)methy)phosphonic acid]	< 1	< 10
O=P(O)(O)CP(=O)(O)OC[C@H]1O[C@@H](c2cnc3c(N4CCCCC4)nc(Cl)nn23)[C@H](O)[C@@H]1O [Compound 43, (((((2R,3S,4R,1S)-5-(2-chloro-4-(piperidin-1-yl)imidazo[2,1-f][1,2,4]triazin-7-yl)-3,4-dihydroxytetrahydrofuran-2-yl)methoxy)(hydroxy)phosphoryl)methyl)phosphonic Acid]	< 1	< 10
NC(=O)c1nc(NC2CCCC2)c2ncc([C@@H]3O[C@H](COP(=O)(O)CP(=O)(O)O)[C@@H](O)[C@H]3O)n2n1 [Compound 66, (((((2R,3S,4R,5S)-5-(2-carbamoyl-4-(cyclopentylamino)imidazo[2,1-f][1,2,4]triazin-7-yl)-3,4-dihydroxytetrahydrofuran-2-yl)methoxy)(hydroxy)phosphoryl)methyl)phosphonic Acid]	< 1	< 10
O=P(O)(O)CP(=O)(O)OC[C@H]1O[C@@H](c2cnc3c(NC4CCc5ccccc54)nc(Cl)nn23)[C@H](O)[C@@H]1O (stereo partly drawn) [Compound 9, (((((2R,3S,4R,1S)-5-(2-chloro-4-((2,3-dihydro-1H-inden-1-yl)amino)imidazo[2,1-f][1,2,4]triazin-7-yl)-3,4-dihydroxytetrahydrofuran-2-yl)methoxy)(hydroxy)phosphoryl)methy)phosphonic acid]	< 1	< 10
O=P(O)(O)CP(=O)(O)OC[C@H]1O[C@@H](c2cnc3c(N4CCCC45CCC5)nc(Cl)nn23)[C@H](O)[C@@H]1O [Compound 41, [({[(2R,3S,4R,5S)-5-(4-{5-azaspiro[3.4]octan-5-yl}-2-chloroimidazo[2,1-f][1,2,4]triazin-7-yl)-3,4-dihydroxyoxolan-2-yl]methoxy}(hydroxy)phosphoryl)methyl]phosphonic Acid]	< 1	< 10
C[C@H](Nc1nc(Cl)nn2c([C@@H]3O[C@H](COP(=O)(O)CP(=O)(O)O)[C@@H](O)[C@H]3O)cnc12)c1ccc(Cl)c(Cl)c1 [Compound 53, (((((2R,3S,4R,5S)-5-(2-chloro-4-(((S)-1-(3,4-dichlorophenyl)ethyl)amino)imidazo[2,1-f][1,2,4]triazin-7-yl)-3,4-dihydroxytetrahydrofuran-2-yl)methoxy)(hydroxy)phosphoryl)methyl)phosphonic acid]	< 1	< 10
C[C@H](Nc1nc(Cl)nn2c([C@@H]3O[C@H](COP(=O)(O)CP(=O)(O)O)[C@@H](O)[C@H]3O)cnc12)c1ccccc1F [Compound 32, (((((2R,3S,4R,1S)-5-(2-chloro-4-(((S)-1-(2-fluorophenyl)ethyl)amino)imidazo[2,1-f][1,2,4]triazin-7-yl)-3,4-dihydroxytetrahydrofuran-2-yl)methoxy)(hydroxy)phosphoryl)-methyl)phosphonic Acid]	< 1	< 10
O=P(O)(O)CP(=O)(O)OC[C@H]1O[C@@H](c2cnc3c(N4CCCC[C@H]4c4ccccc4)nc(Cl)nn23)[C@H](O)[C@@H]1O [Compound 56, (((((2R,3S,4R,1S)-5-(2-chloro-4-((S)-2-phenylpiperidin-1-yl)imidazo[2,1-f][1,2,4]triazin-7-yl)-3,4-dihydroxytetrahydrofuran-2-yl)methoxy)(hydroxy)phosphoryl)methyl)phosphonic Acid]	< 1	< 10
O=P(O)(O)CP(=O)(O)OC[C@H]1O[C@@H](c2cnc3c(N4Cc5ccccc5C4)nc(Cl)nn23)[C@H](O)[C@@H]1O [Compound 24, [({[(2R,3S,4R,5S)-5-[2-chloro-4-(1,3-dihydroisoindol-2-yl)imidazo[2,1-f][1,2,4]triazin-7-yl]-3,4-dihydroxyoxolan-2-yl]methoxy}(hydroxy)phosphoryl)methyl]phosphonic acid]	< 1	< 10
O=P(O)(O)CP(=O)(O)OC[C@H]1O[C@@H](c2cnc3c(N4CCC[C@H]4c4ccccc4)nc(Cl)nn23)[C@H](O)[C@@H]1O [Compound 64, (((((2R,3S,4R,1S)-5-(2-chloro-4-((S)-2-phenylpyrrolidin-1-yl)imidazo[2,1-f][1,2,4]triazin-7-yl)-3,4-dihydroxytetrahydrofuran-2-yl)methoxy)(hydroxy)phosphoryl)methyl)phosphonic Acid]	< 1	< 10
O=P(O)(O)CP(=O)(O)OC[C@H]1O[C@@H](c2cnc3c(N4CCOCC4)nc(Cl)nn23)[C@H](O)[C@@H]1O [Compound 42, (((((2R,3S,4R,5S)-5-(2-chloro-4-morpholinoimidazo[2,1-f][1,2,4]triazin-7-yl)-3,4-dihydroxytetrahydrofuran-2-yl)methoxyxhydroxy)phosphoryl)methyl)phosphonic acid]	< 1	< 10
